SMILES strings stand for the structures.

The subject of this experiment is HBV viral production from HepAD38 cells. Description: Activity of test compounds on viral production from HepAD38 cells (viral load by qPCR of HBV core sequence in supernatant). Type of experiment: cell-based. The settings on record: Hepatitis B virus, 120 h, 5 days incubation, HBV DNA in supernatant by qPCR, top concentration 10 μM, read-out: Viral Load EC50 Activity range. In short, it runs like this: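 EC50 and CC50 come from four-parameter fits of supernatant viral load and CellTiter-Glo viability, respectively. Viral load was measured by core-region TaqMan qPCR against HBV DNA standards and compared with DMSO controls. Tet-free HepAD38 cells (50,000/well, 2% FBS) were exposed to compound, highest 10 μM, for 5 days at 37° C.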
As to `CN1[C@H](C(=O)Nc2ccc(F)c(Cl)c2)C[C@H](c2ncc(-c3cncn3C)s2)NS1(=O)=O` [HBV-CSU-277-ISO-I, Cis-N-(3-Chloro-4-fluorophenyl)-2-methyl-5-(5-(1-methyl-1H-imidazol-5-yl)thiazol-2-yl)-1,2,6-thiadiazinane-3-carboxamide 1,1-dioxide], the EC50 is less than 1000 nM. As for `CN1[C@@H](C(=O)Nc2ccc(F)c(Cl)c2)C[C@@H](c2ncc(-c3cncn3C)s2)NS1(=O)=O` [HBV-CSU-277-ISO-II, Cis-N-(3-Chloro-4-fluorophenyl)-2-methyl-5-(5-(1-methyl-1H-imidazol-5-yl)thiazol-2-yl)-1,2,6-thiadiazinane-3-carboxamide 1,1-dioxide], the EC50 is more than 5000 nM.

In the case of `CN1[C@@H](C(=O)Nc2ccc(F)c(Cl)c2)C[C@@H](c2ncc(-c3cncs3)s2)NS1(=O)=O` [HBV-CSU-278-ISO-II, Cis-5-([5,5′-Bithiazol]-2-yl)-N-(3-chloro-4-fluorophenyl)-2-methyl-1,2,6-thiadiazinane-3-carboxamide 1,1-dioxide], the EC50 was more than 5000 nM. With `CN1[C@H](C(=O)Nc2ccc(F)c(Cl)c2)C[C@H](c2ncc(-c3ccnn3C)s2)NS1(=O)=O` [HBV-CSU-281-ISO-I, Cis-N-(3-Chloro-4-fluorophenyl)-2-methyl-5-(5-(1-methyl-1H-pyrazol-5-yl)thiazol-2-yl)-1,2,6-thiadiazinane-3-carboxamide 1,1-dioxide] the figure was less than 1000 nM.

Take `CN1[C@@H](C(=O)Nc2ccc(F)c(Cl)c2)C[C@@H](c2ncc(-c3ccnn3C)s2)NS1(=O)=O` [HBV-CSU-281-ISO-II, Cis-N-(3-Chloro-4-fluorophenyl)-2-methyl-5-(5-(1-methyl-1H-pyrazol-5-yl)thiazol-2-yl)-1,2,6-thiadiazinane-3-carboxamide 1,1-dioxide]: the EC50 lay in the range of 1000 to 5000 nM.

Regarding `CN1C(C(=O)Nc2ccc(F)c(Cl)c2)CC(c2ccc(Br)c(F)c2)NS1(=O)=O` (stereo not drawn) [HBV-CSU-283, Cis-5-(4-Bromo-3-fluorophenyl)-N-(3-chloro-4-fluorophenyl)-2-methyl-1,2,6-thiadiazinane-3-carboxamide 1,1-dioxide], the EC50 is less than 1000 nM.

On to `CN1[C@H](C(=O)Nc2ccc(F)c(Cl)c2)C[C@H](c2cc(-c3cncn3C)cs2)NS1(=O)=O` [HBV-CSU-285-ISO-I, Cis-N-(3-Chloro-4-fluorophenyl)-2-methyl-5-(4-(1-methyl-1H-imidazol-5-yl)thiophen-2-yl)-1,2,6-thiadiazinane-3-carboxamide 1,1-dioxide], for which the EC50 was less than 1000 nM. With `CN1[C@H](C(=O)Nc2ccc(F)c(Cl)c2)C[C@H](c2cc(-c3cncs3)cs2)NS1(=O)=O` [HBV-CSU-286-ISO-I, Cis-N-(3-Chloro-4-fluorophenyl)-2-methyl-5-(4-(thiazol-5-yl)thiophen-2-yl)-1,2,6-thiadiazinane-3-carboxamide 1,1-dioxide] the figure was less than 1000 nM; with `CN1[C@@H](C(=O)Nc2ccc(F)c(Cl)c2)C[C@@H](c2cc(-c3cncs3)cs2)NS1(=O)=O` [HBV-CSU-286-ISO-II, Cis-N-(3-Chloro-4-fluorophenyl)-2-methyl-5-(4-(thiazol-5-yl)thiophen-2-yl)-1,2,6-thiadiazinane-3-carboxamide 1,1-dioxide], 1000 to 5000 nM.

For the molecule `CN1[C@H](C(=O)Nc2ccc(F)c(Cl)c2)C[C@H](c2cc(-c3ccn(C)n3)cs2)NS1(=O)=O` [HBV-CSU-288-ISO-I, Cis-N-(3-Chloro-4-fluorophenyl)-2-methyl-5-(4-(1-methyl-1H-pyrazol-3-yl)thiophen-2-yl)-1,2,6-thiadiazinane-3-carboxamide 1,1-dioxide], the EC50 was less than 1000 nM. For `CN1[C@@H](C(=O)Nc2ccc(F)c(Cl)c2)C[C@@H](c2cc(-c3ccn(C)n3)cs2)NS1(=O)=O` [HBV-CSU-288-ISO-II, Cis-N-(3-Chloro-4-fluorophenyl)-2-methyl-5-(4-(1-methyl-1H-pyrazol-3-yl)thiophen-2-yl)-1,2,6-thiadiazinane-3-carboxamide 1,1-dioxide] the value was 1000 to 5000 nM; for `CN1[C@@H](C(=O)Nc2ccc(F)c(Cl)c2)C[C@@H](c2cc(-c3ccnn3C)cs2)NS1(=O)=O` [HBV-CSU-289-ISO-II, Cis-N-(3-chloro-4-fluorophenyl)-2-methyl-5-(4-(1-methyl-1H-pyrazol-5-yl)thiophen-2-yl)-1,2,6-thiadiazinane-3-carboxamide 1,1-dioxide], 1000 to 5000 nM; for `CN1[C@H](C(=O)Nc2ccc(F)c(Cl)c2)C[C@H](c2cc(-c3cncnc3)cs2)NS1(=O)=O` [HBV-CSU-290-ISO-I, Cis-N-(3-chloro-4-fluorophenyl)-2-methyl-5-(4-(pyrimidin-5-yl)thiophen-2-yl)-1,2,6-thiadiazinane-3-carboxamide 1,1-dioxide], less than 1000 nM. For `CN1[C@@H](C(=O)Nc2ccc(F)c(Cl)c2)C[C@@H](c2cc(-c3cncnc3)cs2)NS1(=O)=O` [HBV-CSU-290-ISO-II, Cis-N-(3-chloro-4-fluorophenyl)-2-methyl-5-(4-(pyrimidin-5-yl)thiophen-2-yl)-1,2,6-thiadiazinane-3-carboxamide 1,1-dioxide] the value was 1000 to 5000 nM. For `CCn1cc(-c2ccc([C@H]3C[C@@H](C(=O)Nc4ccc(F)c(Cl)c4)N(C)S(=O)(=O)N3)s2)cn1` [HBV-CSU-291-ISO-I, Cis-N-(3-chloro-4-fluorophenyl)-5-(5-(1-ethyl-1H-pyrazol-4-yl)thiophen-2-yl)-2-methyl-1,2,6-thiadiazinane-3-carboxamide 1,1-dioxide] the value was less than 1000 nM; for `CCn1cc(-c2ccc([C@@H]3C[C@H](C(=O)Nc4ccc(F)c(Cl)c4)N(C)S(=O)(=O)N3)s2)cn1` [HBV-CSU-291-ISO-II, Cis-N-(3-chloro-4-fluorophenyl)-5-(5-(1-ethyl-1H-pyrazol-4-yl)thiophen-2-yl)-2-methyl-1,2,6-thiadiazinane-3-carboxamide 1,1-dioxide], more than 5000 nM; for `CC(C)n1cc(-c2ccc([C@H]3C[C@@H](C(=O)Nc4ccc(F)c(Cl)c4)N(C)S(=O)(=O)N3)s2)cn1` [HBV-CSU-292-ISO-I, Cis-N-(3-chloro-4-fluorophenyl)-5-(5-(1-isopropyl-1H-pyrazol-4-yl)thiophen-2-yl)-2-methyl-1,2,6-thiadiazinane-3-carboxamide 1,1-dioxide], less than 1000 nM.

Consider `CC(C)n1cc(-c2ccc([C@@H]3C[C@H](C(=O)Nc4ccc(F)c(Cl)c4)N(C)S(=O)(=O)N3)s2)cn1` [HBV-CSU-292-ISO-II, Cis-N-(3-chloro-4-fluorophenyl)-5-(5-(1-isopropyl-1H-pyrazol-4-yl)thiophen-2-yl)-2-methyl-1,2,6-thiadiazinane-3-carboxamide 1,1-dioxide], for which the EC50 lay in the range of 1000 to 5000 nM. With `CN1[C@H](C(=O)Nc2ccc(F)c(Cl)c2)C[C@H](c2ccc(-c3cnn(CCO)c3)s2)NS1(=O)=O` [HBV-CSU-293-ISO-I, Cis-N-(3-chloro-4-fluorophenyl)-5-(5-(1-(2-hydroxyethyl)-1H-pyrazol-4-yl)thiophen-2-yl)-2-methyl-1,2,6-thiadiazinane-3-carboxamide 1,1-dioxide] the figure was less than 1000 nM. Take `CN1[C@@H](C(=O)Nc2ccc(F)c(Cl)c2)C[C@@H](c2ccc(-c3cnn(CCO)c3)s2)NS1(=O)=O` [HBV-CSU-293-ISO-II, Cis-N-(3-chloro-4-fluorophenyl)-5-(5-(1-(2-hydroxyethyl)-1H-pyrazol-4-yl)thiophen-2-yl)-2-methyl-1,2,6-thiadiazinane-3-carboxamide 1,1-dioxide]: the EC50 is more than 5000 nM. For `CCn1cc(-c2csc([C@H]3C[C@@H](C(=O)Nc4ccc(F)c(Cl)c4)N(C)S(=O)(=O)N3)c2)cn1` [HBV-CSU-294-ISO-I, Cis-N-(3-chloro-4-fluorophenyl)-5-(4-(1-ethyl-1H-pyrazol-4-yl)thiophen-2-yl)-2-methyl-1,2,6-thiadiazinane-3-carboxamide 1,1-dioxide] the value was less than 1000 nM; for `CCn1cc(-c2csc([C@@H]3C[C@H](C(=O)Nc4ccc(F)c(Cl)c4)N(C)S(=O)(=O)N3)c2)cn1` [HBV-CSU-294-ISO-II, Cis-N-(3-chloro-4-fluorophenyl)-5-(4-(1-ethyl-1H-pyrazol-4-yl)thiophen-2-yl)-2-methyl-1,2,6-thiadiazinane-3-carboxamide 1,1-dioxide], 1000 to 5000 nM.

Turning to `CC(C)n1cc(-c2csc([C@H]3C[C@@H](C(=O)Nc4ccc(F)c(Cl)c4)N(C)S(=O)(=O)N3)c2)cn1` [HBV-CSU-295-ISO-I, Cis-N-(3-chloro-4-fluorophenyl)-5-(4-(1-isopropyl-1H-pyrazol-4-yl)thiophen-2-yl)-2-methyl-1,2,6-thiadiazinane-3-carboxamide 1,1-dioxide], the EC50 is less than 1000 nM. With `CC(C)n1cc(-c2csc([C@@H]3C[C@H](C(=O)Nc4ccc(F)c(Cl)c4)N(C)S(=O)(=O)N3)c2)cn1` [HBV-CSU-295-ISO-II, Cis-N-(3-chloro-4-fluorophenyl)-5-(4-(1-isopropyl-1H-pyrazol-4-yl)thiophen-2-yl)-2-methyl-1,2,6-thiadiazinane-3-carboxamide 1,1-dioxide], the EC50 was 1000 to 5000 nM. For `CN1[C@H](C(=O)Nc2ccc(F)c(Cl)c2)C[C@H](c2cc(-c3cnn(CCO)c3)cs2)NS1(=O)=O` [HBV-CSU-296-ISO-I, Cis-N-(3-chloro-4-fluorophenyl)-5-(4-(1-(2-hydroxyethyl)-1H-pyrazol-4-yl)thiophen-2-yl)-2-methyl-1,2,6-thiadiazinane-3-carboxamide 1,1-dioxide] the value was less than 1000 nM; for `CN1[C@@H](C(=O)Nc2ccc(F)c(Cl)c2)C[C@@H](c2cc(-c3cnn(CCO)c3)cs2)NS1(=O)=O` [HBV-CSU-296-ISO-II, Cis-N-(3-chloro-4-fluorophenyl)-5-(4-(1-(2-hydroxyethyl)-1H-pyrazol-4-yl)thiophen-2-yl)-2-methyl-1,2,6-thiadiazinane-3-carboxamide 1,1-dioxide], 1000 to 5000 nM.

The values above are taken from patent US11078170B2 (Assembly Biosciences, Inc., priority 2017, dated 2021).
